# Laboratory results taken from PubChem BioAssay (NCI).
#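 Each compound was tested at five concentrations against cells in 96-well plates for 48 hours. GI50 is the concentration that inhibits growth by half. The concentration for full growth arrest is given as TGI.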
# What was measured:
# Test in all cases: NCI tumour cell line growth inhibition, 48 h
# [1] = test system: SR leukemia
# [2] = test system: MDA-MB-231 breast
# [3] = test system: K-562 leukemia
# [4] = test system: SK-MEL-28 melanoma
# [5] = test system: MCF7 breast
# [6] = test system: TK-10 renal
# [7] = test system: KM12 colon
# [8] = test system: A549 NSCLC
# [9] = test system: RXF 393 renal
# [10] = test system: HCT-15 colon
# [11] = test system: EKVX NSCLC
# [12] = test system: SK-MEL-5 melanoma
# [13] = test system: HCC-2998 colon
# [14] = test system: MOLT-4 leukemia
# [15] = test system: UACC-62 melanoma
# [16] = test system: CAKI-1 renal
# [17] = test system: SF-268 CNS
# [18] = test system: HOP-92 NSCLC
# [19] = test system: UO-31 renal
# [20] = test system: CCRF-CEM leukemia
# [21] = test system: SF-295 CNS
# [22] = test system: HOP-62 NSCLC
# [23] = test system: LOX IMVI melanoma
# [24] = test system: DU-145 prostate
# [25] = test system: UACC-257 melanoma
# [26] = test system: BT-549 breast
# [27] = test system: M14 melanoma
# [28] = test system: NCI-H460 lung
# [29] = test system: RPMI-8226 leukemia
# [30] = test system: SNB-19 CNS
# [31] = test system: MALME-3M melanoma
# [32] = test system: SNB-75 CNS
# [33] = test system: 786-0 renal
# [34] = test system: SF-539 CNS
# [35] = test system: NCI-H23 lung
# [36] = test system: NCI-H522 lung
# [37] = test system: HCT-116 colon
# [38] = test system: U251 CNS
# [39] = test system: OVCAR-5 ovarian
# [40] = test system: OVCAR-8 ovarian
# [41] = test system: HL-60(TB) leukemia
# [42] = test system: MDA-MB-435
# [43] = test system: NCI/ADR-RES ovarian
# [44] = test system: IGROV1 ovarian
# [45] = test system: ACHN renal
# [46] = test system: SK-MEL-2 melanoma
# [47] = test system: T-47D breast
# [48] = test system: OVCAR-4 ovarian
# [49] = test system: COLO 205 colon
# [50] = test system: HT29 colon
# [51] = test system: NCI-H226 lung
# [52] = test system: SN12C renal
# [53] = test system: PC-3 prostate
# [54] = test system: HS 578T breast
# [55] = test system: A498 renal
# [56] = test system: OVCAR-3 ovarian
# [57] = test system: SK-OV-3 ovarian
# [58] = test system: SW-620 colon
smiles,measurement,setting,value
CC(C)CCC[C@@H](C)[C@H]1CCC2C3=CCn4c(=O)ccc(=O)n4C3CC[C@@]21C (stereo partly specified),GI50,[1],137 nM
same,TGI,[1],758 nM
same,GI50,[2],1180 nM
same,TGI,[2],2720 nM
same,GI50,[3],309 nM
same,TGI,[3],2020 nM
same,GI50,[4],837 nM
same,TGI,[4],2100 nM
same,GI50,[5],341 nM
same,TGI,[5],1400 nM
same,GI50,[6],421 nM
same,TGI,[6],1430 nM
same,GI50,[7],639 nM
same,TGI,[7],1800 nM
same,GI50,[8],325 nM
same,TGI,[8],1240 nM
same,GI50,[9],717 nM
same,TGI,[9],2310 nM
same,GI50,[10],432 nM
same,TGI,[10],2050 nM
same,GI50,[11],1240 nM
same,TGI,[11],2940 nM
same,GI50,[12],844 nM
same,TGI,[12],2150 nM
same,GI50,[13],708 nM
same,TGI,[13],2030 nM
same,GI50,[14],545 nM
same,TGI,[14],4130 nM
same,GI50,[15],483 nM
same,TGI,[15],1930 nM
same,GI50,[16],460 nM
same,TGI,[16],1210 nM
same,GI50,[17],1460 nM
same,TGI,[17],2870 nM
same,GI50,[18],240 nM
same,TGI,[18],1390 nM
same,GI50,[19],354 nM
same,TGI,[19],1480 nM
same,GI50,[20],453 nM
same,TGI,[20],> 100000 nM
same,GI50,[21],352 nM
same,TGI,[21],1280 nM
same,GI50,[22],1340 nM
same,TGI,[22],2760 nM
same,GI50,[23],482 nM
same,TGI,[23],1490 nM
same,GI50,[24],1240 nM
same,TGI,[24],2520 nM
same,GI50,[25],433 nM
same,TGI,[25],1550 nM
same,GI50,[26],241 nM
same,TGI,[26],1140 nM
same,GI50,[27],436 nM
same,TGI,[27],1440 nM
same,GI50,[28],886 nM
same,TGI,[28],2350 nM
same,GI50,[29],243 nM
same,TGI,[29],1010 nM
same,GI50,[30],1590 nM
same,TGI,[30],3020 nM
same,GI50,[31],1400 nM
same,TGI,[31],2920 nM
same,GI50,[32],1010 nM
same,TGI,[32],2180 nM
same,GI50,[33],921 nM
same,TGI,[33],2180 nM
same,GI50,[34],1430 nM
same,TGI,[34],2790 nM
same,GI50,[35],1630 nM
same,TGI,[35],4180 nM
same,GI50,[36],451 nM
same,TGI,[36],1170 nM
same,GI50,[37],220 nM
same,TGI,[37],645 nM
same,GI50,[38],645 nM
same,TGI,[38],1840 nM
same,GI50,[39],1160 nM
same,TGI,[39],2710 nM
same,GI50,[40],485 nM
same,TGI,[40],7550 nM
same,GI50,[41],113 nM
same,TGI,[41],490 nM
same,GI50,[42],599 nM
same,TGI,[42],2030 nM
same,GI50,[43],602 nM
same,TGI,[43],2350 nM
same,GI50,[44],698 nM
same,TGI,[44],2500 nM
same,GI50,[45],1160 nM
same,TGI,[45],2450 nM
same,GI50,[46],557 nM
same,TGI,[46],1460 nM
same,GI50,[47],266 nM
same,TGI,[47],1600 nM
same,GI50,[48],910 nM
same,TGI,[48],2300 nM
same,GI50,[49],449 nM
same,TGI,[49],1140 nM
same,GI50,[50],575 nM
same,TGI,[50],2060 nM
same,GI50,[51],1430 nM
same,TGI,[51],3320 nM
same,GI50,[52],624 nM
same,TGI,[52],2030 nM
same,GI50,[53],367 nM
same,TGI,[53],1590 nM
same,GI50,[54],1840 nM
same,TGI,[54],5030 nM
same,GI50,[55],1260 nM
same,TGI,[55],2540 nM
same,GI50,[56],740 nM
same,TGI,[56],2000 nM
same,GI50,[57],1780 nM
same,TGI,[57],3170 nM
same,GI50,[58],689 nM
same,TGI,[58],1940 nM
